The values below are quoted from earlier work in patent publication US20250340540A1, “Crystal Forms Of HS378 And Preparation Method Therefor” (priority 2022, published 2025).

The subject of the series is novel coronavirus. Particulars: mouse, in vivo; cited from earlier work.

Molecules are shown by their SMILES.

On to `CC(C)(C)[C@H](NC(=O)C(F)(F)F)C(=O)N1C[C@H]2[C@@H]([C@H]1C(=O)N[C@H](C#N)C[C@@H]1CCNC1=O)C2(C)C` [HS378, (1R, 2S, 5S)-N-{(1S)-1-cyano-2-[(3S)-2-oxopyrrolidin-3-yl]-ethyl}-6,6-dimethyl-3-[3-methyl-N-(trifluoroacetyl)-L-valyl]-3-azabicyclo [3.1.0]hexane-2-carboxamide], for which the Oral activity entry is listed as “Oral activity was demonstrated”.
